The values below are quoted from earlier work in paper PMC3262105 (Journal of the American Chemical Society, 2012).

Series [1] concerns cervical cells. As to conditions: concentration 10 times the IC50 for efficacy.
Series [2] deals with SEVI- and semen-mediated enhancement of HIV infection in T cells.
For series [3], the system named is cervical cells. As to conditions: concentration 10 times the IC50 for efficacy. This is another data set of the same source.

SMILES strings stand for the structures.

`Cc1ccc2nc(-c3ccc(NCCOCCOCCOCCOCCOCCO)cc3)sc2c1` [BTA-EG6]: the pro-inflammatory activity result with cervical cells [1] is reported as “did not exhibit any pro-inflammatory activity”. For the same compound, the “concentration required to nearly completely neutralize the effects of SEVI on HIV-1 infection” value in series [2] is 44 µM. The IC50 in series [2] (read-out: IC50 for reducing SEVI-enhanced infection of HIV, T cells) is 13 µM. Further, in the series with cervical cells [3], the “toxicity to cervical cells” value was “not toxic”.
